Assay [1] has as its system HeLa cells. Kind of assay: HeLa cell viability by trypan blue dye exclusion. The assay is classed as cell-based. On the procedure:
Since extracellular calcium concentration can influence triptolide binding Applicants sought to determine if the presence of calcium influences the rate of triptolide-mediated apoptosis. To first establish the growth rate of HeLa in media±calcium, cell counts were performed over a 72 hour time course. Although calcium-free media caused cells to detach more easily, the overall growth rates were similar where cell doubling occurred every 24 hours on average (FIG. 3B). For triptolide experiments, cells were initially equilibrated in medium±calcium for 16 hours before the addition of 100 nM triptolide. Cell death was assessed by trypan blue dye exclusion at 24, 48, and 72 hours post drug treatment. In the presence of calcium-containing medium, triptolide induced at least 50% cell death by 24 hours with this trend continuing through later time points (FIG. 3C).
Applicants' results have implicated reversible binding of triptolide to a potential binding protein or complex that can be regulated by calcium. To understand if triptolide function is further separable between cell death and NFκB inhibition, Applicants examined the effect of concentration on these two endpoints. HeLa cells were cultured in the presence of 0, 10, 25, 50, or 100 nM of triptolide and separately assessed for cell death or the ability to suppress NFκB transactivation promoted by TNF-α. Following 24-48 hours of culture, viable cells were recovered and counted. Following 24 hours, triptolide concentrations from 25-100 nM caused greater than 50% of the cells to undergo cell death as assessed by detachment, clumping and the failure to exclude trypan blue dye. […] This is consistent with previous studies showing that low doses of triptolide cause cell cycle arrest rather than apoptosis (Kiviharju, et al., 2002, Clin Cancer Res 8, 2666-2674).
Based upon Applicants' studies examining the concentration dependent effect of triptolide on the two measured biological endpoints, cell death and transcriptional repression, Applicants wanted to determine how modulating triptolide's structure may also discriminate between the two pathways. For cell viability assays, HeLa cells were incubated with 0, 0.1, 1, or 10 μM of each analog or triptolide for 24 hours and then counted using trypan blue dye exclusion. […] NFκB transcriptional inhibition was measured using the κB-luciferase assay as previously described following 5 hours of incubation with each analog (0-10 μM) and TNF-α addition.
HeLa cells were incubated in DMEM or SMEM (Gibco) media+10% FBS and maintained at 37° C. in 5% CO2 for all experiments. HeLa cell viability was assessed by trypan blue dye exclusion, as well as by morphological examination (non-viable cells were rounded and detached from culture plate).

In assay [2] the test system is HeLa cells. Nature of the assay: HeLa cell viability by trypan blue dye exclusion. Format: cell-based. To be noted: 10 μM (so in the source), 48 hours.

Regarding `CC(C)[C@]12O[C@H]1[C@@H]1O[C@]13[C@]1(O[C@H]1C[C@H]1C4=C(CC[C@@]13C)C(=O)OC4)[C@@H]2O` [triptolide, Triptolide], the cell growth result with HeLa cells [1] (10 nM) is “efficient at arresting cell growth”. The cell death is 60% in the assay with HeLa cells [1] (0.1 μM, 24 hours, analog study); “greater than 50%” in the assay on HeLa cells [1] (0.1 μM, 24 hours, analog study, listed as Triptolide); “at least 50%” in the assay on HeLa cells [1] (100 nM, calcium-containing medium, by 24 hours); “greater than 50%” with HeLa cells [1] (25-100 nM, 24 hours); “nearly all cells treated within this concentration range of triptolide died” with HeLa cells [1] (25-100 nM, 48 hours). For the same compound, the “cell death at the higher concentrations” value with HeLa cells [1] (1 or 10 μM versus 0.1 μM, 24 hours) is “no significant increase”. In the assay on HeLa cells [1] (HeLa cells), the “minimal incubation time required for commitment to apoptosis” value was “three to four”. In addition, the “cell proliferation and cell death” value with HeLa cells [2] is given as “inhibited cell proliferation but did not induce cell death”.

The values are drawn from patent publication US20080188449A1, “Treatment of Conditions Caused By Calcium Abnormalities” (priority 2004, published 2008).
